Reference: the supplement of paper PMC7796163
± gives the uncertainty stated by the source.

Assays:
Assay in all cases: CYP enzyme activity (probe substrate metabolite formation) fold change vs solvent control; higher = stronger induction of CYP activity
Conditions in all cases: HepaRG
CYP2C9 = CYP2C9 (UniProt P11712)
Experimental: (§1)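 Differentiated HepaRG cells were treated with 1, 5 or 10 µM of each PAH (0.5% DMSO) for 12, 24 or 48 h, then incubated for 3 h at 37 °C with a cocktail of isoform-specific CYP substrates (phenacetin for CYP1A2, bupropion for CYP2B6, amodiaquine for CYP2C8, tolbutamide for CYP2C9, mephenytoin for CYP2C19, propafenone for CYP2D6, atorvastatin for CYP3A4). Metabolite formation was quantified by LC-MS as a measure of CYP activity and reported as fold change over solvent control (mean ± SD, n=3). Values below the LLOQ were set to half the LLOQ.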

CYP2C19 = CYP2C19 (UniProt P33261)
Experimental: as §1

CYP2B6 = molecular target: T1, CYP2B6 (UniProt P20813)
T1 sequence (whole entry): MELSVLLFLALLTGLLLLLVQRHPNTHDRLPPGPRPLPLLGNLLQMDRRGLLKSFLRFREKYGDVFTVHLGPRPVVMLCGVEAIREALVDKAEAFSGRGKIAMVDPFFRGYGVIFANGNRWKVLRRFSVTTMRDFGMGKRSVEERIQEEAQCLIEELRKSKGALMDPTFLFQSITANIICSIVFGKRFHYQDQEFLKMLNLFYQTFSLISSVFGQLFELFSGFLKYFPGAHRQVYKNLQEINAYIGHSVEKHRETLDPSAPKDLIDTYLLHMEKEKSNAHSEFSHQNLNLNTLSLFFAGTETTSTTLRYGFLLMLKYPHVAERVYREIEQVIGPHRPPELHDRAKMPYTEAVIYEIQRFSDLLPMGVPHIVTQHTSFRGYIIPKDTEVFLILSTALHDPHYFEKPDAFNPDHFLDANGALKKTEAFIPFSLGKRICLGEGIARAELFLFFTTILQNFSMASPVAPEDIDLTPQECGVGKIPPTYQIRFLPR
Experimental: as §1

CYP3A4 = CYP3A4 (UniProt P08684)
Experimental: as §1

CYP1A2 = molecular target: T2, CYP1A2 (UniProt P05177)
T2 sequence (whole entry): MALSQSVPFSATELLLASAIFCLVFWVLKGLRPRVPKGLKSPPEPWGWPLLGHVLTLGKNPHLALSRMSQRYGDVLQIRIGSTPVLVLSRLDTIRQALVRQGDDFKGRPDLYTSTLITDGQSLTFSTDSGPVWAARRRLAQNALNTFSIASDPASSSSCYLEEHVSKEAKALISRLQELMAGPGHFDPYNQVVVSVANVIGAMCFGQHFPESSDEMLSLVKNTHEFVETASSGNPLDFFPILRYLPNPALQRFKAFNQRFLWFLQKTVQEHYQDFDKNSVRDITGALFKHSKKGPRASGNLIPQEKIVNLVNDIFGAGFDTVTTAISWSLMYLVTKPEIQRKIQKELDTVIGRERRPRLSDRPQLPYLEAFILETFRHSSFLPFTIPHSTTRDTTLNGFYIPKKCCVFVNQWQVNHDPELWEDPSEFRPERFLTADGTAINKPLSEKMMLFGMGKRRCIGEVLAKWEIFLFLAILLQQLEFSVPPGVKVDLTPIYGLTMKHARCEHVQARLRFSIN
Experimental: as §1

CYP2C8 = molecular target: T3, CYP2C8 (UniProt P10632)
T3 sequence (whole entry): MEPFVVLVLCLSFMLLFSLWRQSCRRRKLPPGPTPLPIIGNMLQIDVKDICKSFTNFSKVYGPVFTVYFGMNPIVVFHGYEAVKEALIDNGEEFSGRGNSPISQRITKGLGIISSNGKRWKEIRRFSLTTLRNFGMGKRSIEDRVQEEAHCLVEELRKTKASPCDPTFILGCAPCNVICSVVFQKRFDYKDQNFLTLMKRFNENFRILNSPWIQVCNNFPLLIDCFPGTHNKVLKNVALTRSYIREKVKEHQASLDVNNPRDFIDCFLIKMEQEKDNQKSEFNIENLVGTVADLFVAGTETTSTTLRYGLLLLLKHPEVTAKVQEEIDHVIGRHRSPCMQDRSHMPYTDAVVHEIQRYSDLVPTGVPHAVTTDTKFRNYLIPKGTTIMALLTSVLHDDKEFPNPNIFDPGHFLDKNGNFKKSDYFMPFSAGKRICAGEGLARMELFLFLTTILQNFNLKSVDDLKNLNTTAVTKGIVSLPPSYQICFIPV
Experimental: as §1

CYP2D6 = CYP2D6 (UniProt P10635)
Experimental: as §1

Sequence of CYP3A4 (P08684 whole entry): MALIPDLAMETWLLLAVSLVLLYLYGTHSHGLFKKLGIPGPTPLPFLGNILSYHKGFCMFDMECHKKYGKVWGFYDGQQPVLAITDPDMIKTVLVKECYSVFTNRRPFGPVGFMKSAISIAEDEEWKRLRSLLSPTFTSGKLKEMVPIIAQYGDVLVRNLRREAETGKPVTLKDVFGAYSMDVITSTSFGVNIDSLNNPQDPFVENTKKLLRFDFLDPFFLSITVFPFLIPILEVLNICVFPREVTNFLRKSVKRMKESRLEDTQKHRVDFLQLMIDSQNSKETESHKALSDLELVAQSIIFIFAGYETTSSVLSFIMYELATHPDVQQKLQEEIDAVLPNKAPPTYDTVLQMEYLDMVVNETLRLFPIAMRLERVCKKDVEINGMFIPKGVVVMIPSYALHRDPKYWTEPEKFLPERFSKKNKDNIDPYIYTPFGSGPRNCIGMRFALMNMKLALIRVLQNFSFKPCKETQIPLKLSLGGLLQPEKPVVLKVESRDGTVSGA
Sequence of CYP2C19 (P33261 whole entry): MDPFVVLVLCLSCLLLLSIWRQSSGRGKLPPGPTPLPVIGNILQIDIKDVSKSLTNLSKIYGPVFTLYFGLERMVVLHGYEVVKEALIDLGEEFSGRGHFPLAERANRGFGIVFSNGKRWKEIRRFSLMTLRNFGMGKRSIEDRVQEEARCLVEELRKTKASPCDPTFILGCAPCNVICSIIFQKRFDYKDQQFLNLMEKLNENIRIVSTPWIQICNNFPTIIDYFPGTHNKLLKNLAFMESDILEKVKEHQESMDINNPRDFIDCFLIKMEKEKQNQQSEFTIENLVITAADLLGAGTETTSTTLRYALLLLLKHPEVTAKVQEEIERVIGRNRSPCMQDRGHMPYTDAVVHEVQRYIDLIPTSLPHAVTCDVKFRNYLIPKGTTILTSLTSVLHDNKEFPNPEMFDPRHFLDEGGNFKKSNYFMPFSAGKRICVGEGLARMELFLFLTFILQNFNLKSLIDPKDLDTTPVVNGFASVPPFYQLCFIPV
Sequence of CYP2D6 (P10635 whole entry): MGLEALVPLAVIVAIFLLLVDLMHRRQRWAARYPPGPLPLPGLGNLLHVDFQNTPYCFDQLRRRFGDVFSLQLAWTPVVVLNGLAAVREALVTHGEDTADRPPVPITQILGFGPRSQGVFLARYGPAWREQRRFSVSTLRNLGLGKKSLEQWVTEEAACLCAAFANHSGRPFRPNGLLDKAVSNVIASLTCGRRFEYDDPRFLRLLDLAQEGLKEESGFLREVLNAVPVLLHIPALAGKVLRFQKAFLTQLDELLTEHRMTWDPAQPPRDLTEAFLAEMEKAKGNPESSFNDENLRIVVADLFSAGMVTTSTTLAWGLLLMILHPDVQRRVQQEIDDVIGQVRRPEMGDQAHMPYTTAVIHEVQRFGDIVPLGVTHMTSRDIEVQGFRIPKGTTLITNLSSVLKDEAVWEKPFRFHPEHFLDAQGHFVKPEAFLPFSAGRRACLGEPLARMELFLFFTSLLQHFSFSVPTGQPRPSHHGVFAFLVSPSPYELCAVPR
Sequence of CYP2C9 (P11712 whole entry, canonical isoform): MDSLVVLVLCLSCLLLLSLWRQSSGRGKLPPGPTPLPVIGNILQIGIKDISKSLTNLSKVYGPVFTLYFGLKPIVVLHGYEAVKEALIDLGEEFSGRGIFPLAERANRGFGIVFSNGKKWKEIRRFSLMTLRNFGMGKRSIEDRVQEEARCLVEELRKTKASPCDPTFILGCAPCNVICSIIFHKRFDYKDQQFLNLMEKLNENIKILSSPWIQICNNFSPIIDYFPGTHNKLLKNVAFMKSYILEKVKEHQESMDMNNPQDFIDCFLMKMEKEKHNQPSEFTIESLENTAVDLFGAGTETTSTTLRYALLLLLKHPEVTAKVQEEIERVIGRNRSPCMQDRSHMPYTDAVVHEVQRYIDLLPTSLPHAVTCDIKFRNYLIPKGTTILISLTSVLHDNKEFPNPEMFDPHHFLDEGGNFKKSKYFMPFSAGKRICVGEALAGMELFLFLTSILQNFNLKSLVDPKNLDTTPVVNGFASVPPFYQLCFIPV

c1ccc2c(c1)ccc1ccccc12 [phenanthrene]
CYP enzyme activity
Conditions	CYP1A2	CYP2B6	CYP2C8	CYP2C9	CYP2C19	CYP2D6	CYP3A4
1 µM, treatment time 12 h	0.969	1.02	0.995	1.02	0.946	0.961	0.891
1 µM, treatment time 24 h	0.862	1.18	1.01	1.05	0.961	0.97	0.828
1 µM, treatment time 48 h	0.839	1.15	1.01	1.06	0.981	0.879	0.844
5 µM, treatment time 12 h	1.04	1.25	0.991	1.08	1.06	1.08	0.961
5 µM, treatment time 24 h	1.18	1.98	1.05	1.27	1.15	1.19	1.1
5 µM, treatment time 48 h	1.09	2.15	1.08	1.23	1.16	1.05	1.1
10 µM, treatment time 12 h	1.1	1.12	0.995	1.03	0.985	1.03	0.928
10 µM, treatment time 24 h	1.06	1.75	1.04	1.17	1.11	0.986	0.994
10 µM, treatment time 48 h	1.11	2.29	1.08	1.34	1.17	1.03	1.11

c1cc2ccc3cccc4ccc(c1)c2c34 [pyrene]
CYP enzyme activity
Conditions	CYP1A2	CYP2B6	CYP2C8	CYP2C9	CYP2C19	CYP2D6	CYP3A4
1 µM, treatment time 12 h	1.18	1.1	1.01	0.925	0.893	0.973	0.912
1 µM, treatment time 24 h	1.15	1.42	1.04	1.07	1.04	0.894	0.91
1 µM, treatment time 48 h	1.07	1.3	1.07	1.18	1.16	0.996	0.931
5 µM, treatment time 12 h	1.32	1.41	0.921	0.982	1.06	1.07	0.987
5 µM, treatment time 24 h	1.42	2.27	1.07	1.08	1.06	1.04	1.01
5 µM, treatment time 48 h	1.28	2.75	1.1	1.14	1.15	0.942	1.07
10 µM, treatment time 12 h	1.31	1.33	0.924	0.914	1.02	1.11	0.916
10 µM, treatment time 24 h	1.57	2.4	1.14	1.08	1.18	1.2	1.21
10 µM, treatment time 48 h	1.52	3.6	1.15	1.45	1.3	1.12	1.32
